From PubChem BioAssay (NCI)
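Interpolation was linear, between the two tested concentrations surrounding the appropriate level; five concentrations were tested over 48 hours in 96-well plates. GI50 is the concentration that inhibits growth by half. The concentration for full growth arrest is given as TGI.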

Assays:
Experiment in all cases: NCI tumour cell line growth inhibition, 48 h
SK-MEL-2 melanoma = system: SK-MEL-2 melanoma
UACC-62 melanoma = system: UACC-62 melanoma
HCT-15 colon = system: HCT-15 colon
SF-295 CNS = system: SF-295 CNS
DU-145 prostate = system: DU-145 prostate
OVCAR-4 ovarian = system: OVCAR-4 ovarian
SK-MEL-5 melanoma = system: SK-MEL-5 melanoma
SNB-19 CNS = system: SNB-19 CNS
OVCAR-3 ovarian = system: OVCAR-3 ovarian
786-0 renal = system: 786-0 renal

| SMILES | GI50 (SK-MEL-2 melanoma) [µM] | TGI (SK-MEL-2 melanoma) [µM] | GI50 (UACC-62 melanoma) [µM] | TGI (UACC-62 melanoma) [µM] | GI50 (HCT-15 colon) [µM] | TGI (HCT-15 colon) [µM] | GI50 (SF-295 CNS) [µM] | TGI (SF-295 CNS) [µM] | GI50 (DU-145 prostate) [µM] | TGI (DU-145 prostate) [µM] | GI50 (OVCAR-4 ovarian) [µM] | TGI (OVCAR-4 ovarian) [µM] | GI50 (SK-MEL-5 melanoma) [µM] | TGI (SK-MEL-5 melanoma) [µM] | GI50 (SNB-19 CNS) [µM] | TGI (SNB-19 CNS) [µM] | GI50 (OVCAR-3 ovarian) [µM] | TGI (OVCAR-3 ovarian) [µM] | GI50 (786-0 renal) [µM] | TGI (786-0 renal) [µM] |
| --- | --- | --- | --- | --- | --- | --- | --- | --- | --- | --- | --- | --- | --- | --- | --- | --- | --- | --- | --- | --- |
| C/C(=N\NC(=O)c1cccc(S(=O)(=O)N2CCN(C)CC2)c1)c1cc(Cl)ccc1O | 3.46 | > 72.6 | 0.873 | 6.4 | 0.27 | > 43.6 | 0.998 | 21.9 | 1.15 | > 100 | 0.545 | > 100 | 1.29 | 3.87 | 2.03 | > 100 | 0.385 | > 100 | 0.992 | > 100 |
| NNC(=O)C(O)C(O)C(O)CO (centres undefined) |  | > 100 |  | > 100 |  | > 100 |  | > 100 |  | > 100 |  | > 100 |  | > 100 |  | > 100 |  | > 100 |  | > 100 |
| O=c1[nH]ccc2nc(N3CCC(O)CC3)nc(Nc3ccc(N4CCOCC4)cc3)c12 | 2.27 | > 100 | 20.5 | > 100 | 1.24 | > 100 | > 100 | > 100 | 2.95 | > 100 | > 100 | > 100 | 3.69 | > 50.8 | > 78.8 | > 100 | 29.1 | > 100 | > 22.6 | > 100 |
| COc1ccc(C2CC(c3ccc4ccccc4c3)=NN2/C=C2\SC(=S)N(NC(=O)Cc3ccccc3Nc3c(Cl)cccc3Cl)C2=O)cc1 (centres undefined) | 2.95 | 18.8 | 0.606 | > 43.8 | 0.467 | > 65.1 | 0.724 | > 32.7 | 0.404 | 27.1 | 1.2 | > 48 | 0.484 | > 36.9 | 0.636 | > 46.8 | 0.343 |  | 0.508 | > 38.1 |
| O=C(CC(O)c1cccnc1)CC(O)c1cccnc1 (centres undefined) |  | 37 |  | 32.2 |  | 29.6 |  | 30.7 |  | > 89.7 |  | 40.9 |  | 32.2 |  | 55.4 |  | 28.1 |  | 39.2 |
| OCCNC(=S)Nc1ccc(-c2nc(N3C[C@H]4CC[C@@H](C3)O4)c3cccn3n2)cc1 | 0.0637 | 0.579 | 0.018 | 0.194 | 0.0906 | 14.4 | 0.0328 | 0.265 | 0.0987 | 24.2 | 0.0389 | 0.63 | 0.0668 | 0.642 | 0.189 | 13.2 | 0.0664 | 4.39 | 0.0677 | 12.8 |
| Cc1ccccc1NC(=O)N/C(N)=N/c1nc(C)c(C)s1 | 0.61 | > 100 | 0.179 | > 100 | 0.0647 | > 100 | 0.164 | > 100 | 0.481 | > 100 | 48 | > 100 | 0.282 | > 100 | 0.283 | 52.7 | 0.17 | 13.5 | 0.652 | > 100 |
| CN(C)c1ccc(/C=N/NC(=O)CSc2nc3sc4c(c3c(=O)n2-c2ccccc2)CCCCC4)cc1 | 15.5 | 59.3 | 4.04 | > 100 | 3.96 | > 100 | 3.39 | 20.7 | 3.41 | > 100 | 2.56 | 6.49 | 3.44 | > 100 | 6.66 | 80.9 | 3.62 | > 100 | 8.26 | 39.1 |
| C[C@]12CC/C(=N\O)C[C@@H]1CC[C@@H]1[C@@H]2CC[C@]2(C)/C(=N/O)CC[C@@H]12 | 32.9 | 97 | 35.6 | > 100 | 43.3 | > 100 | 38.2 | > 100 | 80.7 | > 100 | 56.8 | > 100 | 23.6 | 53.9 | 79.5 | > 100 | 17.4 | 59.1 | 26.7 | 72.3 |
| N=C(N)c1ccc(CS(=O)(=O)F)cc1 | > 100 | > 100 | > 100 | > 100 | > 100 | > 100 | > 100 | > 100 | > 100 | > 100 | > 100 | > 100 | > 100 | > 100 | > 100 | > 100 | > 100 | > 100 | > 100 | > 100 |
| S=P(C1CCCCC1)(C1CCCCC1)C(c1cccnc1)N1CCCC1 (centres undefined) |  | 48.7 |  | 52.5 |  | > 100 |  | 49.2 |  | 29.8 |  | 55.7 |  | 31.9 |  | > 100 |  | > 100 |  | 31.5 |
| C[C@@]1([C@H](OC(=O)c2cccc3ccccc23)C(N)=O)CO1 | 1.12 | 7.09 | 0.452 | 2.24 | 1.72 | 10.7 | 0.427 | 9.28 | 1.61 | 5.64 | 4.66 | > 76.6 | 2.01 | 5.75 | 5.75 | > 37.5 | 21.6 | > 100 | 1.84 | 14.6 |
| COc1ccc(/C=C(/C(=O)N2CCN(c3ccc(C)cc3)CC2)c2cc(OC)c(OC)c(OC)c2)cc1N | 0.64 | > 100 | 0.362 | > 100 | 0.337 | > 100 | 0.287 | > 100 | 0.307 | > 76.3 | 3.21 | > 100 | 0.228 | 0.661 | 0.426 | > 100 | 0.239 | 0.921 | 0.32 | > 100 |
| CCN(CC)c1ccc(CNc2cc(C)nc3ccc(OC)cc23)cc1 | 1.83 | 3.56 | 1.72 | 3.67 | 3.11 | 10.8 | 1.78 | 3.89 | 6.17 | 18.6 | 5 | 16.5 | 1.3 | 2.72 | 3.98 | 16.3 | 3.12 | 12.8 | 2.01 | 4.29 |
